Experimental findings from patent US11773086B2, “Fungal modulators” (TRUSTEES OF BOSTON UNIVERSITY, priority 2020, dated 2023) are described below.

In assay [1] the test system is C. albicans. Put plainly: Checkerboard with fluconazole, clinical isolates CaCi-2 and CaCi-17. It is filed as cell-based, Candida albicans. As for the experimental part:
(§1) FIG. 9A depicts checkerboard assays as described in FIG. 2B and performed with isolates of C. albicans. CaCi-2 and CaCi-17 represent early and late clinical isolates in which FLC resistance evolved over time. Growth was measured at 24 hours using OD600 and normalized to a no drug control well (see color bar). FIG. 9B depicts dose response assays conducted in YPD medium with a C. albicans parental strain, and strains with gain of function mutations in TAC1 as indicated. FLC was tittered in a two-fold dilution on the x-axis in the absence and presence of 50 μM azoffluxin. Growth was measured at 24 hours using OD600 and normalized to a no drug control well (see color bar). […] FIGS. 9D and 9E depict the intracellular concentrations of FLC and azoffluxin measured after treatment (combo treatment at 6.25 μM azoffluxin and 8 μg/mL FLC) for 1 hour by LC-MS. […] Significance was determined by an unpaired student t-test of each combination to the respective compound alone treatment, (*) indicates a p-value<0.05 and (**) indicates a p-value<0.01.
Compound potency was assessed alone by dose response assays or in combination with another compound by dose-response matrixes in 96-well plates, or 384-well, flat-bottom, microtiter plates (Corning) as previously described. […] Growth was quantified by measuring OD600 and corrected for medium background. […]

Assay [2] concerns C. albicans CaCi-17 efflux. Kind of assay: Nile red accumulation (flow cytometry) in CaCi-17. It is filed as cell-based, Candida albicans. As to conditions: CaCi-17 and its cdr1Δ/cdr1Δ mutant. As to the method: as §1
Cellular efflux was determined by measuring Nile red accumulation, as previously described. […] To quantify fluorescence, a CytoFlex Flow Cytometer (Beckman Coulter) was used. […] Each sample was run using the CytExpert Software until ˜20,000 events had been recorded. […]
A general note: A flow cytometer gives signals particle by particle.

The test system of assay [3] is C. auris in co-culture with 293T cells. Put plainly: Co-culture of luciferase-expressing 293T cells with C. auris. It is filed as cell-based, Candida auris. Conditions: azoffluxin and low fluconazole, 48 hours. As to the method: FIG. 10A depicts mammalian embryonic kidney (293T) cells expressing luciferase used to quantify mammalian cell growth in co-culture. Mammalian cells were seeded in 384-well plates in DMEM medium at 5×10^5 cells/mL overnight. After 24 hours the indicated concentration of compound (⋅ indicates combo treatment concentrations) was added along with 2.5×10^3 cells/mL of C. auris. Co-cultures were incubated for 48 hours at 37° C. and then the luminescence was measured as an output of mammalian cell growth. Error represents standard deviation between technical quadruplicates, (***) indicates a p-value<0.001 between 293T cells alone and co-culture growth for each condition. […] FIG. 10C depicts checkerboard assays performed as described in FIG. 2B with C. auris Clade IV isolate B11801. Relative growth was measured after 24 hours using OD600 and normalized to no-drug control wells (see color bar). The FICI calculated for each checkerboard is shown in the top right of each plot, with values<0.5 indicating synergy. FIG. 10D depicts kidney fungal burden (CFU) in mice from each treatment group (n=3) that had been infected with C. auris B11801. […] The significance of differences between combination treatment and treatment with each compound alone was determined by two-tailed unpaired student t-test, (***) p-value<0.001. […]

The subject of assay [4] is C. neoformans. Kind of assay: Fluconazole efficacy with azoffluxin. Conditions: despite increasing Nile red. It is filed as cell-based, Cryptococcus neoformans. An excerpt:
FIGS. 11A and 11B illustrate Nile red Accumulation in C. albicans, C. glabrata, and C. neoformans.

For the molecule `C=C(C)C[C@@H](O)COc1cc2c(cc1C1(c3cc4c(cc3OC[C@H](O)CC(=C)C)OCO4)C(=O)Nc3cc(F)ccc31)OCO2` [CMLD012336], the potentiation of fluconazole entry in assay [1] (early clinical isolate CaCi-2) is given as “No potentiation”; in assay [1] (late clinical isolate CaCi-17) it was “did potentiate fluconazole”. Further, the Nile red accumulation entry in assay [2] is on record as “increase in Nile red accumulation”. Moreover, the “rescue of human cells in co-culture (luminescence)” value in assay [3] is “dramatic rescue of the human cells”. Also, the “enhancement of fluconazole efficacy” value in assay [4] is listed as “did not enhance the efficacy of fluconazole”.
